Reference: patent US20130203635A1, “NUCLEIC ACID LIGATION METHOD” (priority 2012, published 2013)
“Also recorded” adds a separate entry of the source.

B1: C98A: P. horikoshii RtcB with Cys98→Ala98 substitution within predicted metal-binding site (protein, UniProt O59245 1-871, looked up, variant C98A)
chain: MVVPLKRIDKIRWEIPKFDKRMRVPGRVYADEVLLEKMKNDRTLEQATNVAMLPGIYKYSIVMPDGHQGYGFPIGGVAAFDVKEGVISPGGIGYDINALAPGTRVLTEHGYWLKIEEMPEKFKLQRLRVYNIEEGHNDFSKVVFVAEREVGSEEKAIRIVTESGKVIEGSEDHPVLTPEGYVYLRNVKEGDYILVYPFEGVPYEEKKGVILDESAFEGEDPQVVKFLRERNLIPLQWKDPKVGILARILGFALANGYISENDNLTFHGKEEVLREVRKDLEELGIEAIVAEEDKLKVTSREFAFLLEKLGMAHDSIPEWIIEGPLWIKRNFLAGLFGANGSIVEFKGDVPLPITLTHSRELLNDVSRILEGFKVRAKIKMGKNGSYQLVIEDEDSIRNFLGRINYEYDPEKKARGLIAYAYLKFKELMKGNLMTFEEFARDRGYEGGFVAEKVIEVKSVKPEYDKFYDIGVYHSAHNFIANGIVVHNCGVRLIRTNLTEKEVRPRIKQLVDTLFKNVPSGVGSQGRIKLHWTQIDDVLVDGAKWAVDNGYGWERDLERLEEGGRMEGADPEAVSQRAKQRGAPQLGSLGSGNHFLEVQVVDKIFDPEVAKAYGLFEGQVVVMVHTGSRGLGHQVASDYLRIMERAIRKYRIPWPDRELVSVPFQSEEGQRYFSAMKAAANFAWANRQMITHWVRESFQEVFKQDPEGDLGMDIVYDVAHNIGKVEEHEVDGKRVKVIVHRKGATRAFPPGHEAVPRLYRDVGQPVLIPGSMGTASYILAGTEGAMKETFGSTCHGAGRVLSRKAATRQYRGDRIRQELLNRGIYVRAASMRVVAEEAPGAYKNVDNVVKVVSEAGIAKLVARMRPIGVAKG
B2: Archease: Pyrococcus horikoshii Archease (SEQ ID NO:9; UniProt O59205), N-terminal hexahistidine tag (protein, listed as Pyrococcus horikoshii)
chain: MKKWEHYEHTADIGIRGYGDSLEEAFEAVAIALFDVMVNVNKVEKKEVREIEVEAEDLEALLYSFLEELLVIHDIEGLVFRDFEVKIERVNGKYRLRAKAYGEKLDLKKHEPKEEVKAITYHDMKIERLPNGKWMAQLVPDI
modifications: N-terminal His6 tag
B3: C78A: E. coli RtcB with Cys78→Ala78 substitution within predicted metal-binding site (protein, UniProt P46850 1-408, looked up, variant C78A)
RNA-splicing ligase RtcB: MNYELLTTENAPVKMWTKGVPVEADARQQLINTAKMPFIFKHIAVMPDVHLGKGSTIGSVIPTKGAIIPAAVGVDIGAGMNALRTALTAEDLPENLAELRQAIETAVPHGRTTGRCKRDKGAWENPPVNVDAKWAELEAGYQWLTQKYPRFLNTNNYKHLGTLGTGNHFIEICLDESDQVWIMLHSGSRGIGNAIGTYFIDLAQKEMQETLETLPSRDLAYFMEGTEYFDDYLKAVAWAQLFASLNRDAMMENVVTALQSITQKTVRQPQTLAMEEINCHHNYVQKEQHFGEEIYVTRKGAVSARAGQYGIIPGSMGAKSFIVRGLGNEESFCSCSHGAGRVMSRTKAKKLFSVEDQIRATAHVECRKDAEVIDEIPMAYKDIDAVMAAQSDLVEVIYTLRQVVCVKG

Key:
[1] = system: Escherichia coli RtcB ligase; assay: E. coli RtcB RNA ligation assay (3′-P and 5′-OH termini, urea-polyacrylamide gel); type: biochemical; conditions: for use as cofactor in ligation of 3′-P and 5′-OH RNA termini: in place of GTP, tRNA anticodon stem-loop mimic substrate, with Mn2+ (FIG. 1B, 1C)
Excerpt: FIG. 1. […] (A) RNA ligation substrate that mimics a broken tRNA anti-codon. FAM label allows visualization in a urea-polyacrylamide gel. […] (B) Cofactor- and metal-dependence of ligation. Reactions contain manganese, except in the “—Mn^2+” lane. The lane labeled “C78A” is a ligation reaction performed with RtcB that has a C78A substitution within the predicted metal binding site. (C) Ligation assays using GTP analogues as cofactors. […] (E) RNA termini specificity of RtcB. Modifications to the ligatable ends of the tRNA mimic substrate were made as indicated and tested in ligation reactions.
To assay for ligation, we initially used two single-stranded RNA (ssRNA) oligos that were each 10 nucleotides in length. The 5′ RNA fragment was labeled with 6-carboxyfluorescein (FAM) at its 5′ end and phosphorylated at its 3′ end. The 3′ RNA fragment had hydroxyl groups at each end. We intended to convert the 3′-P into a 2′,3′-cyclic phosphate by incubation with RtcA and ATP, so as to produce a suitable substrate for RtcB.
These reactions were performed with high concentrations of GTP analogues to ensure saturation of RtcB.
We investigated the RNA termini structure requirements for ligation by modifying the ends of our tRNA mimic substrate. First, all four combinations of either a phosphate or hydroxyl group at each termini were sampled while maintaining a 2′-OH on the 5′ side of the ligation junction. […] Next, the importance of the terminal ribose 2′-OH for ligation was probed by replacing this hydroxyl group with either hydrogen (2′-H) or fluorine (2′-F).

P. horikoshii RtcB = P. horikoshii RtcB RNA ligation assay; type: biochemical, Pyrococcus horikoshii; conditions: for use as cofactor in RNA ligation with Archease: Archease 0.25 μM, NTP 100 μM, RtcB 5 μM (FIG. 10B, 11B)
Excerpt: FIG. 2. P. horikoshii RtcB catalyzed ligation of 3′-P and 5′-OH RNA termini. P. horikoshii RtcB requires Mn^2+ and GTP for ligation. […] The lane labeled “2′-deoxy” is a ligation reaction using the tRNA mimic substrate but with a 3′-P/2′-H termini on its 5′ fragment. The lane labeled “C98A” is a ligation reaction with RtcB that has a C98A substitution within the predicted metal-binding site.
RtcB from the archaeal domain of life likewise catalyzes the GTP-dependent ligation of 3′-P and 5′-OH RNA termini. The crystal structure of RtcB from a hyperthermophilic archaeon, Pyrococcus horikoshii, was determined as part of a structural genomics project (21). […] The P. horikoshii homologue has 29% amino-acid sequence identity to E. coli RtcB, and 49% identity to the human ligase (HSPC117). To investigate if RtcB from archaea catalyzes the GTP-dependent ligation of 3′-P and 5′-OH RNA termini, we synthesized a P. horikoshii rtcB gene and produced soluble enzyme in E. coli. […] The P. horikoshii ligase also required a 2′-OH on the terminal nucleotide of the 5′ RNA fragment.
RNA Ligation Assay. Ligation assays with single-stranded RNA as the substrate used two 10-nt oligonucleotides that were synthesized by Integrated DNA Technologies (15). […] The 3′ RNA fragment had hydroxyl groups on each end. The sequence of the 5′ fragment was FAM-5′-AAAUAACAAA-3′-P (SEQ ID NO:6) and the sequence of the 3′ RNA fragment was 5′-AAAUAACAAA-3′ (SEQ ID NO:6). Ligation reactions were performed in 10-μL solutions consisting of 50 mM Bis-Tris buffer, pH 7.0, containing NaCl (300 mM), […] (0.25 mM), GTP (100 μM), each RNA fragment (1 μM), and RtcB (10 μM). Reaction mixtures were incubated at 70° C. for 1 h prior to the addition of water (40 μL) and RNA-loading buffer (50 μL). Reaction mixtures were subjected to electrophoresis and visualized as previously described in the previous examples.
The ability of Archease to activate P. horikoshii RtcB was tested in reactions using ssRNA substrates. Ligation reactions included a 10-nt 5′ RNA fragment and a 10-nt 3′ RNA fragment. […] The 3′ RNA fragment had hydroxyl groups on each end. The sequence of the 5′ fragment was FAM-5′-AAAUAACAAA-3′-P (SEQ ID NO:6) and the sequence of the 3′ RNA fragment was 5′-AAAUAACAAA-3′ (SEQ ID NO:6). Ligation reactions were performed in 50-μL solutions consisting of 50 mM Tris-HCl buffer, pH 7.4, containing NaCl (300 mM), MnCl2 (0.25 mM), GTP (100 μM), RNA fragments (100 pmol of each), and P. horikoshii RtcB (5 μM).
Ligation reaction mixtures were set up as described above, and each was divided into two tubes. No Archease was added to one set of reaction mixtures (FIG. 10A), and Archease was added to a concentration of 0.25 μM to the other set (FIG. 10B). […] Archease had no effect on ligation reactions that used 2′-F RNA.
We tested the ability of Archease to enable RtcB to use cofactors other than GTP or dGTP. Ligation reaction mixtures with RtcB were set up as described above, and each was divided into two tubes. No Archease was added to one set of reaction mixtures (FIG. 11A), and Archease was added to a concentration of 0.25 μM to the other set (FIG. 11B). The various NTPs were included at a concentration of 100 μM.

Molecule | use as cofactor in ligation of 3′-P and 5′-OH RNA termini [1] | also measured
Nc1ccn([C@@H]2O[C@H](COP(=O)(O)OP(=O)(O)OP(=O)(O)O)[C@@H](O)[C@H]2O)c(=O)n1 [CTP] | unable to substitute for GTP | use as cofactor in RNA ligation with Archease (P. horikoshii RtcB): not
Nc1nc2c(ncn2[C@@H]2O[C@H](COP(=O)(O)OP(=O)(O)O)[C@@H](O)[C@H]2O)c(=O)[nH]1 [GDP] | allowed for low levels of ligation | –
Nc1nc2c(ncn2[C@@H]2O[C@H](COP(=O)(O)O)[C@@H](O)[C@H]2O)c(=O)[nH]1 [GMP] | allowed for low levels of ligation | –
Nc1nc2c(ncn2[C@@H]2O[C@H](COP(=O)(O)OP(=O)(O)OP(O)(O)=S)[C@@H](O)[C@H]2O)c(=O)[nH]1 [GTPγS] | enabled ligation, albeit at lower efficiency than did GTP | –
Nc1nc2c(ncn2C2OC(COP(=O)(O)CP(=O)(O)OP(=O)(O)O)C(O)C2O)c(=O)[nH]1 (stereo not drawn) [GpCpp, guanosine 5′-(α,β-methyleno)-triphosphate] | unreactive; also recorded: did not enable the ligation to proceed | –
Nc1nc2c(ncn2[C@@H]2O[C@H](COP(=O)(O)OP(=O)(O)CP(=O)(O)O)[C@@H](O)[C@H]2O)c(=O)[nH]1 [GppCp] | enabled ligation, albeit at lower efficiency than did GTP | –
Nc1nc2c(ncn2[C@@H]2O[C@H](COP(=O)(O)OP(=O)(O)NP(=O)(O)O)[C@@H](O)[C@H]2O)c(=O)[nH]1 [GppNHp] | enabled ligation, albeit at lower efficiency than did GTP | –
NC(=O)c1ccc[n+]([C@@H]2O[C@H](COP(=O)([O-])OP(=O)(O)OC[C@H]3O[C@@H](n4cnc5c(N)ncnc54)[C@H](O)[C@@H]3O)[C@@H](O)[C@H]2O)c1 [NAD^+] | unable to substitute for GTP | –
O=c1ccn([C@@H]2O[C@H](COP(=O)(O)OP(=O)(O)OP(=O)(O)O)[C@@H](O)[C@H]2O)c(=O)[nH]1 [UTP] | unable to substitute for GTP | use as cofactor in RNA ligation with Archease (P. horikoshii RtcB): not
Nc1nc2c(ncn2[C@H]2C[C@H](O)[C@@H](COP(=O)(O)OP(=O)(O)OP(=O)(O)O)O2)c(=O)[nH]1 [dGTP, deoxyguanosine-5′-triphosphate] | – | use as cofactor in RNA ligation with Archease (P. horikoshii RtcB): enables RtcB to use dGTP efficiently as a cofactor; use as cofactor in RNA ligation (P. horikoshii RtcB; RtcB alone, no Archease, ssRNA 10-nt substrates): ligation activity is reduced substantially; also recorded: at a rate that is much lower than that with GTP; also recorded: ligation efficiency is reduced greatly
B1 | – | ligase activity of RtcB variant (P. horikoshii RtcB; alanine substitution): abolishes ligase activity
B2 | – | effect of Archease on catalysis of RNA ligation by RtcB (P. horikoshii RtcB; Archease at concentrations lower than RtcB or RNA, GTP 100 μM (FIG. 9)): significantly enhances the catalytic activity of RtcB
B3 | – | ligase activity of RtcB variant ([1]; substitution within predicted metal-binding site): abolished ligase activity
